Data taken from patent US5759768A, “Assays for factors affecting circularization of DNA, assays for factors affecting DNA integration, factors, and uses thereof” (priority 1995, dated 1998).
“Also recorded” adds a separate entry of the source.

Tested on: viral DNA (circularization versus integration into .phi.X174 target DNA)
Test: Circularization versus integration (competition) in cytoplasmic extracts from infected cells
Type: biochemical, HIV-1
Procedure: Circularization of the linear viral DNA present in cytoplasmic extracts was competitive with integration into heterologous DNA targets (FIG. 28). In FIG. 28, cytoplasmic extracts from infected cells were incubated at 37° C. as follows: Lane 1; incubation with 10 μg/ml .phi.X174 DNA for 45 minutes, lane 2, incubation with 1 mM ATP for 45 minutes; lane 3, incubation with […] .phi.X174 DNA and 1 mM ATP for 45 minutes; lane 4, incubation with 10 μg/ml .phi.X174 DNA for 45 minutes, followed by incubation with 1 mM ATP for 45 minutes; lane 5, incubation with 1 mM ATP for 45 minutes, followed by incubation with 10 μg/ml .phi.X174 DNA for 45 minutes; lane 6, incubation with nothing added for 45 minutes, followed by incubation with 10 μg/ml .phi.X174 DNA for 45 minutes. In FIG. 29, lanes 1-6, cytoplasmic extracts from infected cells were incubated at 37° C. for 45 minutes in the presence of 1 mM ATP and .phi.X174 DNA at a concentration of 0 μg/ml (lane 1), 0.3 μg/ml (lane 2), 0.8 μg/ml (lane 3), 1.6 μg/ml (lane 4), 3.2 μg/ml (lane 5), or 6.4 μg/ml (lane 6). Lane 7, extract incubated with 6.4 μg/ml .phi.X174 DNA for 45 minutes in the absence of added ATP. In FIG. 30, cytoplasmic extracts from infected cells were incubated at 37° C. for 60 minutes with nothing added (lane 1), with 6.4 μg/ml .phi.X174 DNA and 1 mM ATPγS (lane 2), or with 1 mM […] (lane 3). […]

Nc1ncnc2c1ncn2[C@@H]1O[C@H](COP(=O)(O)OP(=O)(O)OP(=O)(O)O)[C@@H](O)[C@H]1O [ATP, adenosine triphosphate]
circular or integrated product (ATP (1 mM) and target DNA together, versus either alone, 45 min): the amount of circular or integrated product produced was reduced
integration of viral DNA into target DNA (preincubation with 1 mM ATP for 45 min prior to target DNA): integration of viral DNA into target DNA was prevented; also recorded: unable to integrate during a subsequent incubation with target DNA
